Calls of active or inactive are those of the source. The calls are words filed in the database; no cut-off is given here.
Assays:
[1] = system: A549; experiment: Cytostatic activity against human A549 cells after 3 days by MTT assay; format: functional, cell-based; conditions: A549, 72 h
[2] = system: CCRF-CEM; experiment: Cytostatic activity against human CCRF-CEM cells after 3 days by MTT assay; format: functional, cell-based; conditions: 72 h
[3] = Cytostatic activity against human CEM/DNR cells after 3 days by MTT assay; format: functional, cell-based; conditions: 72 h
[4] = Cytostatic activity against human HCT116 cells after 3 days by MTT assay; format: functional, cell-based; conditions: HCT-116, 72 h
[5] = system: K562; experiment: Cytostatic activity against human K562 cells after 3 days by MTT assay; format: functional, cell-based; conditions: K562, 72 h
[6] = Cytostatic activity against human K562-TAX cells after 3 days by MTT assay; format: functional, cell-based; conditions: 72 h
[7] = system: HepG2; experiment: Cytostatic activity against human HepG2 cells assessed as cell viability after 6 days by XTT assay; format: functional, cell-based; conditions: HepG2, 144 h
[8] = system: HL-60; experiment: Cytostatic activity against human HL60 cells assessed as cell viability after 6 days by XTT assay; format: functional, cell-based; conditions: HL-60, 144 h
[9] = system: HeLa S3; experiment: Cytostatic activity against human HeLaS3 cells assessed as cell viability after 6 days by XTT assay; format: functional, cell-based; conditions: HeLa S3, 144 h
[10] = system: BJ; experiment: Cytostatic activity against human BJ cells after 3 days by MTT assay; format: ADME, cell-based; conditions: 72 h
[11] = system: MRC5; experiment: Cytostatic activity against human MRC5 cells after 3 days by MTT assay; format: ADME, cell-based; conditions: MRC5, 72 h
[12] = Cytostatic activity against p53 deficient human HCT116 cells after 3 days by MTT assay; format: functional, cell-based; conditions: HCT-116, 72 h
[13] = system: Hepatitis C virus; experiment: Antiviral activity against HCV1B; format: functional, organism-based; conditions: Hepacivirus hominis; genotype 1b
[14] = system: Hepatitis C virus; experiment: Antiviral activity against HCV2A; format: functional, organism-based; conditions: Hepacivirus hominis; genotype 2a
[15] = Antiviral activity against RSV; format: functional, organism-based
[16] = system: Candida; experiment: Antifungal activity against Candida sp.; format: functional, organism-based

Structure (SMILES) | IC50 [1] [µM] | IC50 [2] [µM] | IC50 [5] [µM] | IC50 [7] [µM] | IC50 [8] [µM] | IC50 [9] [µM] | IC50 [3] [µM] | IC50 [4] [µM] | IC50 [6] [µM] | IC50 [10] [µM] | IC50 [11] [µM] | IC50 [12] [µM] | Activity [13] | Activity [14] | Activity [15] | Activity [16]
CNc1ncnc2[nH]cc(Sc3cccs3)c12 | 28.6 | 14.7 | 4.95 | > 25 | 13.5 | 17.6 | 26.2 | 19 | 21 | 132 | 148 | 45.3 | inactive | inactive | inactive | inactive
Nc1ncnc2c1c(Sc1cccs1)cn2[C@@H]1O[C@H](CO)[C@@H](O)[C@H]1O | 43.8 | 64.7 | 23.4 | > 25 | > 25 | > 25 | > 100 | 36.7 | 55.8 | 93.6 | 138 | 23.2 | inactive | inactive | inactive | inactive
Cc1ncnc2[nH]cc(Sc3cccs3)c12 | > 50 | > 50 | 14 | > 25 | > 25 | > 25 | > 50 | 38.1 | 64.6 | > 150 | 136 | 29.1 | inactive | inactive | inactive | inactive
Nc1ncnc2c1c(Sc1ccccc1)cn2[C@@H]1O[C@H](CO)[C@@H](O)[C@H]1O | 22.9 | 34 | 23.1 | > 25 | > 25 | > 25 | > 50 | 20.8 | 29.6 | 67.9 | 67.7 | 22.4 | inactive | inactive | inactive | inactive
Nc1ncnc2[nH]cc(Sc3cccs3)c12 | 22.8 | 16.7 | 17.9 | > 25 | 13.9 | 17.9 | 20.3 | 22.8 | 17.9 | > 150 | 136 | > 50 | inactive | inactive | inactive | inactive

Now those with a lower IC50 [1], led by results:

IC50 [1] [µM] | IC50 [2] [µM] | IC50 [5] [µM] | IC50 [7] [µM] | IC50 [8] [µM] | IC50 [9] [µM] | Structure (SMILES) | IC50 [3] [µM] | IC50 [4] [µM] | IC50 [6] [µM] | IC50 [10] [µM] | IC50 [11] [µM] | IC50 [12] [µM] | Activity [13] | Activity [14] | Activity [15] | Activity [16]
19.8 | 14.6 | 3.83 | > 25 | > 25 | > 25 | CN(C)c1ncnc2[nH]cc(Sc3cccs3)c12 | 35.2 | 11 | 22.1 | 145 | > 150 | 27.5 | inactive | inactive | inactive | inactive
11.4 | 7.73 | 4.26 | > 25 | 7.63 | 8.49 | c1coc(-c2ncnc3[nH]cc(Sc4cccs4)c23)c1 | 20.8 | 6.75 | 18.9 | 22.1 | 32.9 | 19.5 | inactive | inactive | inactive | inactive
21.5 | 18.2 | > 50 | > 25 | > 25 | 23.9 | COc1ncnc2[nH]cc(Sc3cccs3)c12 | > 50 | 17.2 | 44 | 123 | 148 | > 50 | inactive | inactive | inactive | inactive
16.2 | 10.6 | 5.14 | > 25 | 21.1 | > 25 | c1csc(Sc2c[nH]c3ncnc(-c4cccs4)c23)c1 | 17.7 | 13 | 21.7 | 23.4 | 54.5 | 5.06 | inactive | inactive | inactive | inactive

From ChEMBL document CHEMBL3734714, “Synthesis and cytostatic activity of 7-arylsulfanyl-7-deazapurine bases and ribonucleosides” (Medchemcomm, 2015)
